# Assay results taken from patent publication US11325884B2, “Ketone inhibitors of lysine gingipain” (CORTEXYME, INC., priority 2016, dated 2022).
# Columns and labels:
# [1] = system: P. gingivalis infection; assay: Related studies: brain abeta42 and neuroinflammation; type: in vivo
# Description: By inhibiting Kgp, the compounds disclosed herein can treat P. gingivalis infection itself, as well as the detrimental effects of neurological disease and other infection-associated conditions.
# [2] = system: P. gingivalis W83; assay: Experimental periodontitis / P. gingivalis infection mouse model; type: in vivo, BALB/C female mice; details: for alveolar bone loss: week 5-10, vs vehicle; for reduction in P. gingivalis DNA copy number (RgpB gene) in brain tissue: between week 5 and 10
# Description: P. gingivalis applied over several weeks directly to the gingiva of mice has been used as a model for periodontitis. Alveolar bone resorption, a hallmark of periodontitis progression, is typically observed when this model employed. More recently, use of the model has also led to the discovery of a significant amount P. gingivalis in the brain, which accumulates concomitantly with oral colonization and which subsequently leads to detrimental effects such as inflammation and loss of hippocampal neurons.
# At the beginning of the study, eight week old BALB/C female mice received antibiotic in drinking water (sulfamethoxazolum 0.87 mg/mL, trimethoprimum 0.17 mg/mL) for 10 days to reduce microbiome protection from experiment infection. Experimental periodontitis was induced by ligature placement followed by multiple exposures to P. gingivalis. During the ligature procedure mice were anesthetized with an intraperitoneal injection of ketamine (200 mg/kg) and xylazine (10 mg/kg), and eyes were lubricated with ointment (Puralube Vet; Pharmaderm, Melville, N.Y.). Next, a 5-0 silk ligature (Roboz Surgical Instrument Co.) was tied around the upper maxillary left and right second molar. Sutures were applied and tied gently to prevent damage to the periodontal tissue.
# Mice (n=8-10/arm) were infected for 6 weeks every other day. For infection, 100 μL of bacteria solution were applied topically to the buccal surface of the maxillae. For preparation of the bacteria, P. gingivalis W83 (ATCC, Rockville, Md.) was streaked on Tryptic Soy Broth (TSB) agar plates (5% sheep blood, supplemented with 0.5 mg/mL L-cysteine, 5 μg/mL hemin, and 0.5 μg/mL vitamin K) and grown under anaerobic conditions at 37° C. for 5-7 days. Samples were then inoculated in TSB with hemin, vitamin K and L-cysteine (TSB-HKC) until mid-log phase (OD600=0.5-0.7). Bacteria were washed in PBS and prepared at final concentration of 1×10^10 cells/mL in PBS+2% methylcellulose (CMC).
# Vehicle-treated animals received PBS only. At 5 weeks, a subgroup of animals (n=16) were euthanized to gather baseline measurements before the start of treatment. After 10 weeks, mice were euthanized and the brain, serum, and maxillary tissues were harvested and frozen in liquid nitrogen.
# Bone loss in the maxillae was measured ex vivo blinded using OsiriX MD software (PixmeoSARL, Bernex, Switzerland). Point of measurements were obtained using 3D Multi Planar Reconstruction (MPR) view where the maxillae were sliced straight along the superficial roots of second molar and the posterior root of first molar, with a tangent of the anterior root of the first molar. The distance between the cementoenamel junction (CEJ) and the alveolar bone crest (ABC) was measured from the CEJ to a reference line on the ABC which was placed perpendicular to the superficial root one each side of the second molar. […] (ANOVA: F (5, 24)=15.71, p<0.0001; t-test with Bonferroni correction: **p<0.005, ***p<0.001).
# DNA was extracted from brain tissue using the DNeasyBLOOD & TISSUE KIT (Qiagen, Germany) according to manufacturer's protocol. Taqman qPCR was performed with Kapa Probe fast qPCR Mix (Rox Low) on a Bio-Rad CFX96 Real-Time System C1000 Touch ThermalCycler with forward and reverse primers, and a detection probe. The primers were based on a single copy of P. gingivalis arginine-specific cysteine-proteinase gene. Duplicate samples were assayed in a total volume of 10 μL, containing 100 ng of template brain genomic DNA solution, TaqMan Universal PCR Master Mix (2×) (Kapa Biosystems, USA), and the specific set of primers (final concentration 5 μM) and probe (final concentration 4 μM) (GenoMed, Poland), corresponding to 562.5 nM for the forward and reverse primers and 100 nM for the probe primer. After an initial incubation step of 2 min at 50° C. and denaturation for 95° C. for 20 sec, 40 PCR cycles (95° C. for 20 s, 60° C. for 30 sec) were performed. […]
# [3] = molecular target: Kgp (Porphyromonas gingivalis (Bacteroides gingivalis), UniProt Q51817); assay: Detection of Kgp with Cy5 activity-based probe (SDS-PAGE, Cy5 visualization); type: binding; details: 100 nM preincubation, P. gingivalis W83
# Protocol: It has a warhead that binds to the Kgp active site, a peptide-based core, and a Cy5 fluorophore for detection. Labeled target proteins can be visualized by biochemical separation of a sample with fractionation by 2-D gel electrophoresis and detection of fluorescent signals from Cy5 at the appropriate excitation and emission wavelength. Incubation of a fixed concentration of the probe following binding of Kgp to a test compound (e.g., a candidate Kgp inhibitor) results in binding of the activity probe to Kgp active sites not already bound by the test compound.
# Preparation of P. gingivalis lysate. 10^8 bacteria were collected and centrifuged at 5000 g for 10 min at 4° C., and the supernatant was discarded. The bacterial cell pellet was lysed with 1 mL of B-Per lysis buffer (Thermo Fischer) on ice for 10 min, then centrifuged for 10 min at 14000 g, 4° C. Supernatant-containing protein lysate was collected. Biological samples were lysed with B-Per lysis buffer for 10 min at 4° C.
# Cy5 direct labeling of Kgp. Biological samples, P. gingivalis lysate or purified Kgp were incubated with quenchable Cy5 probe compound 71 (1 μM) for 1 h at 37° C. with shaking. […]
# [4] = Oral pharmacokinetics in CD-1 mice; type: in vivo; details: male CD-1 mice, p.o. 10 mg/kg, as compared to reference compound 73
# Sequence of Kgp (Q51817 229-737 limits assumed): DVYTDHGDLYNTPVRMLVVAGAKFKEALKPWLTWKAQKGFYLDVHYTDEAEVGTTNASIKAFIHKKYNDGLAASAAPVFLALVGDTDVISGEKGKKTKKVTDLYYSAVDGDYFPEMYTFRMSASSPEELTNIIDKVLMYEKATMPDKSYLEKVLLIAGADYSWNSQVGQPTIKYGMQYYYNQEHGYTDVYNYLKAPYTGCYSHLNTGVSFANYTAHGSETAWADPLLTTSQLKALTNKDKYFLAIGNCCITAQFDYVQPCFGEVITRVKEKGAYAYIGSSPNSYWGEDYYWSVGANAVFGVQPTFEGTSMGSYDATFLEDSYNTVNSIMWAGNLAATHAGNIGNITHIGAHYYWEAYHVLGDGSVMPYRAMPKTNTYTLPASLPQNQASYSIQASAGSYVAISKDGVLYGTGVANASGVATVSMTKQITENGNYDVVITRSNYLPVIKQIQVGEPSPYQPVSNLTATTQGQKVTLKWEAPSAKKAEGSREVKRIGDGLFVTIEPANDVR
structure (smiles),measurement,setting,value
"NCCCC[C@H](NC(=O)C1CCCC1)C(=O)COc1c(F)ccc(F)c1F [Compound 1, (S)—N-(7-amino-2-oxo-1-(2,3,6-trifluorophenoxy)heptan-3-yl)cyclopentanecarboxamide]",induction of brain abeta42,[1],reduce
same,neuroinflammation,[1],reduce
same,alveolar bone loss,[2]; 3 mg/kg orally b.i.d.,trended to improvement but did not result in significant improvement
same,reduction in P. gingivalis DNA copy number (RgpB gene) in brain tissue,[2]; 3 mg/kg,50%
same,alveolar bone loss,[2]; 10 mg/kg orally b.i.d.,improved
same,reduction in P. gingivalis DNA copy number (RgpB gene) in brain tissue,[2]; 10 mg/kg,50%
same,alveolar bone loss,[2]; 30 mg/kg orally b.i.d.,improved
same,reduction in P. gingivalis DNA copy number (RgpB gene) in brain tissue,[2]; 30 mg/kg,80%
same,GAD67 positive interneurons in the dentate gyrus,"[2]; 10 weeks, infected untreated mice lost 25%",at the same level as the GAD67^+ cells in the mock-infected mice
same,competition for Kgp active site binding with probe compound 71,[3],competes for active site binding
same,oral availability,[4],improved
same,plasma concentrations,[4],increased
